# Test results as given in ChEMBL document CHEMBL4373723 (J Med Chem, 2019).
# Calls of active or inactive are those of the source. The calls are words filed in the database; no cut-off is given here. Bridge positions count the residues as written; N and C are the ends. Peptide text beside a SMILES is read from it. I, II: the chains in the order shown.
# Tests used:
# Frizzled-7 [1] = biological target: T1, Frizzled-7 (Homo sapiens, UniProt O75084); assay: Binding affinity to recombinant human Frizzled-7 (Gln33 to Leu185 residues)/human IgG1 chimeric protein expressed in CHO cells assessed as association rate constant by SPR assay; assay type: cell-based
# Frizzled-7 [2] = biological target: T1, Frizzled-7; assay: biochemical; assay type: cell-based, CHO; conditions: read-out: Kd
# [3] = Stability in presence of TCEP assessed as disulfide reduction at 20 uM measured over 40 mins at 37 degC by LC-MS analysis; assay type: physicochemical
# Frizzled-7 [4] = biological target: T1, Frizzled-7; assay type: cell-based; conditions: cho
# [5] = 40 min, 20 µM
# [6] = mouse, serum, 24 h, 200 µM
# Frizzled-7 [7] = biological target: T1, Frizzled-7; assay: Binding affinity to recombinant human Frizzled-7 (Gln33 to Leu185 residues)/human IgG1 chimeric protein expressed in CHO cells assessed as reduction in interaction of TcdB with FZD7 by SPR
# Frizzled-10 = biological target: T2, Frizzled-10 (Homo sapiens, UniProt Q9ULW2); assay: Binding affinity to Frizzled-10 CRD (unknown origin)
# T2 sequence (Q9ULW2 whole entry): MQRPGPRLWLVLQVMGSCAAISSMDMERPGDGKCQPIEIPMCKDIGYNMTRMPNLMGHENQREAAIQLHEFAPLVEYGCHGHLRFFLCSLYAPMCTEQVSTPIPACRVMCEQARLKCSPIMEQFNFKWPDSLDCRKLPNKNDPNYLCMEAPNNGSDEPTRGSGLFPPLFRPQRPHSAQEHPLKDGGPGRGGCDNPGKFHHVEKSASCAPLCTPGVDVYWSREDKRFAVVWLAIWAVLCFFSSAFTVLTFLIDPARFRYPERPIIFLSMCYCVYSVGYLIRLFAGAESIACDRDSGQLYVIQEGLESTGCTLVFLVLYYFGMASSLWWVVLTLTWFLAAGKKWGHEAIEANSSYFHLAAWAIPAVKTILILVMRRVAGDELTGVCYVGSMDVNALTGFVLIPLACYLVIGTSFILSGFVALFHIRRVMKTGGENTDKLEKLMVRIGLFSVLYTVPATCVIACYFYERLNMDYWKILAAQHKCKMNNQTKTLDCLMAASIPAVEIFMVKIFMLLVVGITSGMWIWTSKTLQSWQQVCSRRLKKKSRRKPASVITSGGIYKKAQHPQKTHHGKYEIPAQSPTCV
# [8] = Binding affinity to recombinant human/mouse Frizzled-2 (Gln29 to Leu168 residues)/human IgG1 chimeric protein expressed in mouse NS0 cells assessed as reduction in interaction of TcdB with FZD7 incubated for 1 hr by competition ELISA; assay type: cell-based
# Frizzled-7 [9] = biological target: T1, Frizzled-7; conditions: CHO
# Frizzled-4 = biological target: T3, Frizzled-4 (Homo sapiens, UniProt Q9ULV1); assay: Binding affinity to recombinant human Frizzled-4 (Phe37 to Glu180 residues)/human IgG1 chimeric protein expressed in mouse NS0 cells by SPR assay
# T3 sequence (Q9ULV1 whole entry): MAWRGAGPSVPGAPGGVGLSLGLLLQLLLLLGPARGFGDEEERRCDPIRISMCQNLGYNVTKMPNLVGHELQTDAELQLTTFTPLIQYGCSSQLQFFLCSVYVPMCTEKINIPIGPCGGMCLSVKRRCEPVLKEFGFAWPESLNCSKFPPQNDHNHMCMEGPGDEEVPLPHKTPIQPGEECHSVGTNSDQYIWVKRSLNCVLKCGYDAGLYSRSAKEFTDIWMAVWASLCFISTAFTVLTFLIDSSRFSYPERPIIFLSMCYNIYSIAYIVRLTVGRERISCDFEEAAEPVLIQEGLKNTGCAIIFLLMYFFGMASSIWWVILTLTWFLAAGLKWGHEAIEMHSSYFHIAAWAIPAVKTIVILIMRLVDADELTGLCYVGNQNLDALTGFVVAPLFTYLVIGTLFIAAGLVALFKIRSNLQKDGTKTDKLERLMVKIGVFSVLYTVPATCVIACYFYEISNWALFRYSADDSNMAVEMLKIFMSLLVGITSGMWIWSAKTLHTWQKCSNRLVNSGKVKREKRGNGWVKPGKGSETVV
# Frizzled-7 [10] = biological target: T1, Frizzled-7; assay: Inhibition of Frizzled-7 in HEK293 cells expressing Wnt assessed as reduction in Wnt signaling by firefly luciferase reporter gene assay; assay type: cell-based
# Frizzled-8 = Frizzled-8 (Homo sapiens, UniProt Q9H461); assay: Binding affinity to recombinant human Frizzled-8 (Ala25 to Pro172 residues)/human IgG1 chimeric protein expressed in CHO cells […] by SPR assay
# Sequence of Frizzled-8 (Q9H461 whole entry): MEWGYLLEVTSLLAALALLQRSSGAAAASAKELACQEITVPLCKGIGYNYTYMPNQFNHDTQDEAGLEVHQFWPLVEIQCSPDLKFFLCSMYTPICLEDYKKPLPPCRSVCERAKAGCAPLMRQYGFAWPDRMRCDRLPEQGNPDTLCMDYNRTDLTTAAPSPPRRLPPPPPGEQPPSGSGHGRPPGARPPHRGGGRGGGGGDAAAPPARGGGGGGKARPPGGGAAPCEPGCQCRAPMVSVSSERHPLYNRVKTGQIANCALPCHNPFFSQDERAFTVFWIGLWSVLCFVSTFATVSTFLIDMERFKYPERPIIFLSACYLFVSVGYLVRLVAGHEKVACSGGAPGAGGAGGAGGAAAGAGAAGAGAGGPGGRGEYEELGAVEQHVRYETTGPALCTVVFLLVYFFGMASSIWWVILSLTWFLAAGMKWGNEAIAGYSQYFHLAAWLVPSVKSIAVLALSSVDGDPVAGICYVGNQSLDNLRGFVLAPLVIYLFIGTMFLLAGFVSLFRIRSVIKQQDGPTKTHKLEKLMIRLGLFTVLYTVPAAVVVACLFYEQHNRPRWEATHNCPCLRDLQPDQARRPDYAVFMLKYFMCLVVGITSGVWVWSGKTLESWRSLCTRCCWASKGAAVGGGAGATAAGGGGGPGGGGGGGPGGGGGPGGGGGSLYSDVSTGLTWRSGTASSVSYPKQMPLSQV
# Frizzled-7 [11] = biological target: T1, Frizzled-7; assay: Binding affinity to recombinant human Frizzled-7 (Gln33 to Leu185 residues)/human IgG1 chimeric protein expressed in CHO cells assessed as reduction in interaction of TcdB with FZD7 incubated for 1 hr by competition ELISA; assay type: cell-based
# [12] = Binding affinity to recombinant human/mouse Frizzled-2 (Gln29 to Leu168 residues)/human IgG1 chimeric protein expressed in mouse NS0 cells by SPR assay
# Frizzled-5 = Frizzled-5 (Homo sapiens, UniProt Q13467); assay: Binding affinity to recombinant human Frizzled-5 (Ala27 to Pro167 residues)/human IgG1 chimeric protein expressed in mouse NS0 cells by SPR assay
# Sequence of Frizzled-5 (Q13467 whole entry): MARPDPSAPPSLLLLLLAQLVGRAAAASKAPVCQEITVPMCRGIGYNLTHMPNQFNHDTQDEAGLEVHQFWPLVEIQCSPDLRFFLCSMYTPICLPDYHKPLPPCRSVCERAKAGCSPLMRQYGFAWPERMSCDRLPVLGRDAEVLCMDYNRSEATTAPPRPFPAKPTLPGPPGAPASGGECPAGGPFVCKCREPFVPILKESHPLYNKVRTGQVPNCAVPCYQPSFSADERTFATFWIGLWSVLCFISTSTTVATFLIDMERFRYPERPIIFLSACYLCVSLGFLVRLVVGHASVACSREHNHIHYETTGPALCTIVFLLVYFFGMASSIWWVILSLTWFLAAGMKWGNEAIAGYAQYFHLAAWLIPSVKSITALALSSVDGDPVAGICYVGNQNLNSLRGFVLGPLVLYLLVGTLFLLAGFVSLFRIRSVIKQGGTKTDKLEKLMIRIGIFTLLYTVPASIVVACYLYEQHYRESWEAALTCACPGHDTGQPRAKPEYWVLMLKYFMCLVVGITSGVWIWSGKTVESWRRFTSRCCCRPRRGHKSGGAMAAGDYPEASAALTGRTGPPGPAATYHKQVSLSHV
# Frizzled-9 = biological target: T4, Frizzled-9 (Homo sapiens, UniProt O00144); assay: Binding affinity to Frizzled-9 CRD (unknown origin)
# T4 sequence (O00144 whole entry): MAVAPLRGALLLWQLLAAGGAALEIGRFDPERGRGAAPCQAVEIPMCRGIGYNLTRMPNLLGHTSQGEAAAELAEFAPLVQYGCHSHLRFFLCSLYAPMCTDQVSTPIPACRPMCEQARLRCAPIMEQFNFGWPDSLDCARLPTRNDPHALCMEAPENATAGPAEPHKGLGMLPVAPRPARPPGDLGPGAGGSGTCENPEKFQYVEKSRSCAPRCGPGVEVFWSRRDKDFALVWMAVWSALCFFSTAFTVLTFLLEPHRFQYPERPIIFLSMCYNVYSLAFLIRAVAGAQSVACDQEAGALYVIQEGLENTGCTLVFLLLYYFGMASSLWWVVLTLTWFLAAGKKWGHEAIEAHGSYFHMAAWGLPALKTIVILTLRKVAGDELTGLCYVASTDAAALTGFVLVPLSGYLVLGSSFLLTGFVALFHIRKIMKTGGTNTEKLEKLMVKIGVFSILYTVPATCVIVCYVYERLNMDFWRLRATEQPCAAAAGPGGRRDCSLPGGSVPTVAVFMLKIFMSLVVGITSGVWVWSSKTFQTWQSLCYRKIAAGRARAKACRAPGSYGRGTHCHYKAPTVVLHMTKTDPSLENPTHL
# Frizzled-1 = Frizzled-1 (Homo sapiens, UniProt Q9UP38); assay: Binding affinity to recombinant human Frizzled-1 (Gln73 to His253 residues)/human IgG1 chimeric protein expressed in mouse NS0 cells by SPR assay
# Sequence of Frizzled-1 (Q9UP38 whole entry): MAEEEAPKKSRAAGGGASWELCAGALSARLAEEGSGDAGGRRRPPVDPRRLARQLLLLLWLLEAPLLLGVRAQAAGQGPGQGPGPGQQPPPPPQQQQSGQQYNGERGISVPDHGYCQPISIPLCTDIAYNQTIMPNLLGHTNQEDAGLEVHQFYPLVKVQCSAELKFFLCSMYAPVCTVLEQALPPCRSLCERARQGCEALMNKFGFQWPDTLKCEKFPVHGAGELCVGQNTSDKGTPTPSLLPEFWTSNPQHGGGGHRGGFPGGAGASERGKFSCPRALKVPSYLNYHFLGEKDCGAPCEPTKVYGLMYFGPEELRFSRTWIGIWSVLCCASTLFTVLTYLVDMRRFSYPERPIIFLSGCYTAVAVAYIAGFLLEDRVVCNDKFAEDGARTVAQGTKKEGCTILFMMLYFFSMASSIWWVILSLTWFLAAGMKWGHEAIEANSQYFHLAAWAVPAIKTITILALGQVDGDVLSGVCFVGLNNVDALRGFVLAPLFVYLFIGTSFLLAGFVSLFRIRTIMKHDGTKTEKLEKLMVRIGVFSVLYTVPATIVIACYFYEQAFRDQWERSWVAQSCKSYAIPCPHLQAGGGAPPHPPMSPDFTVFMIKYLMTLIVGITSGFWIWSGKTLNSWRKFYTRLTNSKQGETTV
# Homo sapiens = species on record: Homo sapiens; assay: Binding affinity to recombinant human/mouse Frizzled-2 (Gln29 to Leu168 residues)/human IgG1 chimeric protein expressed in mouse NS0 cells assessed as reduction in interaction of TcdB with FZD7 by SPR
# [13] = 40 min, 20 µM; remark: listed apart in the source
Structure (SMILES),association rate constant (ka) (Frizzled-7 [1]),Kd (Frizzled-7 [2]),Stability [3],Kd (Frizzled-7 [4]),Stability [5],Stability [6],inhibition (Frizzled-7 [7]),Kd (Frizzled-10),inhibition [8],Ka (Frizzled-7 [9]),Kd (Frizzled-4),IC50 (Frizzled-7 [10]),Kd (Frizzled-8),inhibition (Frizzled-7 [11]),Kd [12],Kd (Frizzled-5),Kd (Frizzled-9),Kd (Frizzled-1),inhibition (Homo sapiens),Stability [13]
CC[C@H](C)[C@H](NC(=O)[C@H](Cc1cnc[nH]1)NC(=O)[C@H](CSSCC[C@H](NC(=O)[C@H](Cc1c[nH]c2ccccc12)NC(=O)[C@H](CC(C)C)NC(=O)[C@H](CCC(=O)O)NC(=O)[C@H](CC(C)C)NC(=O)[C@H](CC(=O)O)NC(=O)[C@H](CC(=O)O)NC(=O)[C@@H](NC(C)=O)[C@@H](C)O)C(=O)N[C@@H](Cc1cnc[nH]1)C(=O)N[C@H](C(=O)N[C@@H](CCSC)C(=O)N[C@@H](Cc1ccc(O)cc1)C(N)=O)[C@@H](C)CC)NC(=O)[C@H](Cc1c[nH]c2ccccc12)NC(=O)[C@H](CC(C)C)NC(=O)[C@H](CCC(=O)O)NC(=O)[C@H](CC(C)C)NC(=O)[C@H](CC(=O)O)NC(=O)[C@H](CC(=O)O)NC(=O)[C@@H](NC(C)=O)[C@H](C)O)C(=O)N[C@@H](CCSC)C(=O)N[C@@H](Cc1ccc(O)cc1)C(N)=O,1.7 ×10⁷ /M/s,0.37 nM,Stable,6.3 ×10⁻³ /s,Stable,Stable,–,–,–,–,–,–,–,–,–,–,–,–,–,–
CC[C@H](C)[C@H](NC(=O)[C@H](Cc1cnc[nH]1)NC(=O)[C@H](CSSC[C@H](NC(=O)[C@H](Cc1c[nH]c2ccccc12)NC(=O)[C@H](Cc1cccc(Cl)c1)NC(=O)[C@H](CCC(=O)O)NC(=O)[C@H](CC(C)C)NC(=O)[C@H](CC(=O)O)NC(=O)[C@H](CC(=O)O)NC(=O)[C@@H](NC(C)=O)[C@H](C)O)C(=O)N[C@@H](Cc1cnc[nH]1)C(=O)N[C@H](C(=O)N[C@@H](CCSC)C(=O)N[C@@H](Cc1ccc(O)cc1)C(N)=O)[C@@H](C)CC)NC(=O)[C@H](Cc1c[nH]c2ccccc12)NC(=O)[C@H](CC(C)C)NC(=O)[C@H](CCC(=O)O)NC(=O)[C@H](Cc1cccc(Cl)c1)NC(=O)[C@H](CC(=O)O)NC(=O)[C@H](CC(=O)O)NC(=O)[C@@H](NC(C)=O)[C@H](C)O)C(=O)N[C@@H](CCSC)C(=O)N[C@@H](Cc1ccc(O)cc1)C(N)=O,–,0.039 nM,–,0.54 ×10⁻³ /s,–,–,Active,Not Active,Dose-dependent effect,139 ×10⁵ /M/s,Not Active,53 nM,Not Active,Dose-dependent effect,0.32 nM,Not Active,Not Active,0.34 nM,Active,–
CSCC[C@H](NC(=O)[C@@H](NC(=O)[C@H](Cc1cnc[nH]1)NC(=O)[C@H](CSSC[C@H](NC(=O)[C@H](Cc1c[nH]c2ccccc12)NC(=O)[C@H](Cc1ccccc1)NC(=O)[C@H](CCC(=O)O)NC(=O)[C@H](CC(C)C)NC(=O)[C@H](CC(=O)O)NC(=O)[C@H](CC(=O)O)NC(=O)[C@H](CO)NC(C)=O)C(=O)N[C@@H](Cc1cnc[nH]1)C(=O)N[C@H](C(=O)N[C@@H](CCSC)C(=O)N[C@@H](Cc1ccc(O)cc1)C(N)=O)C(C)C)NC(=O)[C@H](Cc1c[nH]c2ccccc12)NC(=O)[C@H](Cc1ccccc1)NC(=O)[C@H](CCC(=O)O)NC(=O)[C@H](CC(C)C)NC(=O)[C@H](CC(=O)O)NC(=O)[C@H](CC(=O)O)NC(=O)[C@H](CO)NC(C)=O)C(C)C)C(=O)N[C@@H](Cc1ccc(O)cc1)C(N)=O (I: Ac-SDDLEFWCHVMY-NH2 / II: Ac-SDDLEFWCHVMY-NH2; disulfide I:8-II:8),–,0.37 nM,Unstable,2.3 ×10⁻³ /s,Unstable,Stable,–,Not Active,Dose-dependent effect,61.9 ×10⁵ /M/s,Not Active,–,Not Active,Dose-dependent effect,0.99 nM,Not Active,Not Active,1.12 nM,–,Unstable
